The values that follow come from patent US20160272617A1, “SUBSTITUTED PHENYLALANINE DERIVATIVES” (BAYER PHARMA AKTIENGESELLSCHAFT, priority 2013, published 2016).

Each structure is given as a SMILES string. Where a name gives a salt, the structure may show the parent alone.

One assay has as its target T1, human factor XIa (Homo sapiens, UniProt P03951).
T1 construct: purchased Kordia
The experiment in a line: Measurement of FXIa inhibition (fluorogenic peptide substrate Boc-Glu(OBzl)-Ala-Arg-AMC). The format is biochemical. As to conditions: factor XIa from Kordia, 15 min preincubation, 30 min at 22° C., fluorescence. Summed up:
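Released AMC fluorescence (360/460 nm) read after 30 min at 22 °C. The reaction was started with Boc-Glu(OBzl)-Ala-Arg-AMC (10 μM stock) after a 15 min preincubation of the enzyme (0.45 nM stock) with compound (final 50 μM to 0.00013 μM).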

In the next assay the test system is human and animal plasma. The experiment in a line: Determination of anticoagulatory activity: activated partial thromboplastin time (aPTT) in plasma. As to conditions: concentration of test substance which brings about a 1.5-fold extension of the aPTT; plasma species not given. Summed up:
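Citrated plasma (1:9, 0.11 M citrate; 4000 g, 15 min) from human or animal blood incubated with test compound and cephalin/kaolin PTT reagent for 3 min at 37° C.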

T1 sequence (P03951 388-625 limits assumed): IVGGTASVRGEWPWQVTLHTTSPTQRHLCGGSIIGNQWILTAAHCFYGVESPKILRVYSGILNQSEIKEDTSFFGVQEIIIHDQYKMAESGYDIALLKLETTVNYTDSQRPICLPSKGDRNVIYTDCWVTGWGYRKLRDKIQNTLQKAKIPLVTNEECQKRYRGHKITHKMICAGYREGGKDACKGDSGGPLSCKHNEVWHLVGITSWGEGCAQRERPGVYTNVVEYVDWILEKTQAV
T1 sequence (P03951 19-387 partner limits assumed): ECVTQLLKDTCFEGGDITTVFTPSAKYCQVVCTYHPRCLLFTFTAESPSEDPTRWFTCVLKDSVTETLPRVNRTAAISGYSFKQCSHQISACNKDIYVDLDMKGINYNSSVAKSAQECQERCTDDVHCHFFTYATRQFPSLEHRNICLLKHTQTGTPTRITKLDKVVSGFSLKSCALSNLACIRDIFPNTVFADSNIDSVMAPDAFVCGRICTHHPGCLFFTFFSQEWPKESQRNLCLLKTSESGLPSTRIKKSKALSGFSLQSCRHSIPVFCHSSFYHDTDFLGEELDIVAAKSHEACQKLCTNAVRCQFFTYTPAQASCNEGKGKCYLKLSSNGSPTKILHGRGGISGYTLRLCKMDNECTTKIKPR

Consider `Cc1cc(C(=O)NC2CCCNC2=O)ccc1-c1ccc(C[C@H](NC(=O)[C@H]2CC[C@H](CN)CC2)C(=O)Nc2ccc3cn[nH]c3c2)cc1` (stereo partly drawn) [Example 143, 4′-[(2S)-2-({[trans-4-(Aminomethyl)cyclohexyl]carbonyl}amino)-3-(1H-indazol-6-ylamino)-3-oxopropyl]-2-methyl-N-(2-oxopiperidin-3-yl)biphenyl-4-carboxamide hydrochloride], for which it took 2.3 nM to reach half-maximal inhibition at human factor XIa (IC50). Besides, the “aPTT” value in the assay on human and animal plasma came out at 0.07 µmol/L.
`Cc1cc(C(=O)NC2CCNCC2)ccc1-c1ccc(C[C@H](NC(=O)[C@H]2CC[C@H](CN)CC2)C(=O)Nc2ccc(-c3c[nH]cn3)cc2)cc1` [Example 84, 4′-[(2S)-2-({[trans-4-(Aminomethyl)cyclohexyl]carbonyl}amino)-3-{[4-(1H-imidazol-4-yl)phenyl]amino}-3-oxopropyl]-2-methyl-N-(piperidin-4-yl)biphenyl-4-carboxamide hydrochloride]: the IC50 against human factor XIa amounted to 18 nM. In addition, the “aPTT” value in the assay with human and animal plasma amounted to 0.3 µmol/L.
On the same counts, the results for `NC[C@H]1CC[C@H](C(=O)N[C@@H](Cc2ccc(-c3ccc(C(=O)NC4CC4)cc3)cc2)C(=O)Nc2ccc(-c3nnn[nH]3)cc2)CC1` [Example 62, 4′-[(2S)-2-({[trans-4-(Aminomethyl)cyclohexyl]carbonyl}amino)-3-oxo-3-{[4-(1H-tetrazol-5-yl)phenyl]amino}propyl]-N-cyclopropylbiphenyl-4-carboxamide hydrochloride] are 2.9 nM and 0.53 µmol/L.
On the same counts, the results for `Cc1cc(C(=O)NC2CCNCC2)ccc1-c1ccc(C[C@H](NC(=O)[C@H]2CC[C@H](CN)CC2)C(=O)Nc2ccc3[nH]c(-c4ccccn4)nc3c2)cc1` [Example 51, 4′-[(2S)-2-({[trans-4-(Aminomethyl)cyclohexyl]carbonyl}amino)-3-oxo-3-{[2-(pyridin-2-yl)-1H-benzimidazol-5-yl]amino}propyl]-2-methyl-N-(piperidin-4-yl)biphenyl-4-carboxamide hydrochloride] are 11 nM and 0.44 µmol/L.
On the same counts, the results for `Cc1cc(C(=O)NCC2CCN(C)CC2)ccc1-c1ccc(C[C@H](NC(=O)[C@H]2CC[C@H](CN)CC2)C(=O)Nc2ccc(-c3nnc(C(F)(F)C(F)(F)C(=O)O)[nH]3)cc2)cc1` [Example 108, 3-[5-(4-{[(2S)-2-({[trans-4-(Aminomethyl)cyclohexyl]carbonyl}amino)-3-(2′-methyl-4′-{[(1-methylpiperidin-4-yl)methyl]carbamoyl}biphenyl-4-yl)propanoyl]amino}phenyl)-4H-1,2,4-triazol-3-yl]-2,2,3,3-tetrafluoropropanoic acid hydrochloride] are 1.9 nM and 0.07 µmol/L.
For `CCN(CC)CCCNC(=O)c1ccc(-c2ccc(C[C@H](NC(=O)[C@H]3CC[C@H](CN)CC3)C(=O)Nc3ccc(-c4nn[nH]n4)cc3)cc2)c(C)c1` [Example 29, 4′-[(2S)-2-({[trans-4-(Aminomethyl)cyclohexyl]carbonyl}amino)-3-oxo-3-{[4-(2H-tetrazol-5-yl)phenyl]amino}propyl]-N-[3-(diethylamino)propyl]-2-methylbiphenyl-4-carboxamide hydrochloride], half-maximal inhibition against human factor XIa (IC50) was put at 3 nM. In the assay with human and animal plasma, the “aPTT” value turned out to be 0.14 µmol/L.
As for `Cc1cc(C(=O)NC2CCNCC2(C)C)ccc1-c1ccc(C[C@H](NC(=O)[C@H]2CC[C@H](CN)CC2)C(=O)Nc2ccc(-c3nnn[nH]3)cc2)cc1` (stereo partly drawn) [Example 149, 4′-[(2S)-2-({[trans-4-(Aminomethyl)cyclohexyl]carbonyl}amino)-3-oxo-3-{[4-(1H-tetrazol-5-yl)phenyl]amino}propyl]-N-(3,3-dimethylpiperidin-4-yl)-2-methylbiphenyl-4-carboxamide hydrochloride], the IC50 against human factor XIa was determined as 1.8 nM. For the same compound, in the assay with human and animal plasma, the “aPTT” value worked out at 0.04 µmol/L.
Take `Cc1cc(C(=O)NC2CNCC(F)(F)C2)ccc1-c1ccc(C[C@H](NC(=O)[C@H]2CC[C@H](CN)CC2)C(=O)Nc2ccc(-c3nn[nH]n3)c(F)c2)cc1` (stereo partly drawn) [Example 90, 4′-[(2S)-2-({[trans-4-(Aminomethyl)cyclohexyl]carbonyl}amino)-3-{[3-fluoro-4-(2H-tetrazol-5-yl)phenyl]amino}-3-oxopropyl]-N-(5,5-difluoropiperidin-3-yl)-2-methylbiphenyl-4-carboxamide hydrochloride]: the IC50 on human factor XIa turned out to be 1.6 nM. Moreover, the “aPTT” value in the assay on human and animal plasma amounted to 0.06 µmol/L.
For `Cc1nnc(-c2ccc(NC(=O)[C@H](Cc3ccc(-c4ccc(C(=O)NC5CCNCC5)cc4C)cc3)NC(=O)[C@H]3CC[C@H](CN)CC3)cc2)[nH]1` [Example 56, 4′-[(2S)-2-({[trans-4-(Aminomethyl)cyclohexyl]carbonyl}amino)-3-{[4-(3-methyl-4H-1,2,4-triazol-5-yl)phenyl]amino}-3-oxopropyl]-2-methyl-N-(piperidin-4-yl)biphenyl-4-carboxamide hydrochloride] the same measures were 48 nM and 0.44 µmol/L.
With `NC[C@H]1CC[C@H](C(=O)N[C@@H](Cc2ccc(-c3ccc(C(=O)N[C@H]4CC[C@H](O)CC4)c(F)c3)cc2)C(=O)Nc2ccc(-c3n[nH]c(C(F)(F)C(F)(F)C(=O)O)n3)cc2)CC1` [Example 112, 3-[3-(4-{[(2S)-2-({[trans-4-(Aminomethyl)cyclohexyl]carbonyl}amino)-3-{3′-fluoro-4′-[(trans-4-hydroxycyclohexyl)carbamoyl]biphenyl-4-yl}propanoyl]amino}phenyl)-1H-1,2,4-triazol-5-yl]-2,2,3,3-tetrafluoropropanoic acid hydrochloride], the IC50 on human factor XIa was 2 nM. Besides, in the assay on human and animal plasma, the “aPTT” value was determined as 0.17 µmol/L.
On the same counts, the results for `Cc1cc(C(=O)NC2CCN(C)CC2)ccc1-c1ccc(C[C@H](NC(=O)[C@H]2CC[C@H](CN)CC2)C(=O)Nc2ccc(-c3nc(C(F)(F)C(F)(F)CO)n[nH]3)cc2)cc1` [Example 109, 4′-[(2S)-2-({[trans-4-(Aminomethyl)cyclohexyl]carbonyl}amino)-3-oxo-3-({4-[3-(1,1,2,2-tetrafluoro-3-hydroxypropyl)-1H-1,2,4-triazol-5-yl]phenyl}amino)propyl]-2-methyl-N-(1-methylpiperidin-4-yl)biphenyl-4-carboxamide hydrochloride] are 3 nM and 0.11 µmol/L.
For `COc1cc(C(=O)NC2CCN(C)CC2)cc(OC)c1-c1ccc(C[C@H](NC(=O)[C@H]2CC[C@H](CN)CC2)C(=O)Nc2ccc(-c3nn[nH]n3)cc2)cc1` [Example 117, 4′-[(2S)-2-({[trans-4-(Aminomethyl)cyclohexyl]carbonyl}amino)-3-oxo-3-{[4-(2H-tetrazol-5-yl)phenyl]amino}propyl]-2,6-dimethoxy-N-(1-methylpiperidin-4-yl)biphenyl-4-carboxamide hydrochloride] the same measures were 8.9 nM and 0.18 µmol/L.
On the same counts, the results for `Cc1cc(C(=O)NC2CCNCC2)ccc1-c1ccc(C[C@H](NC(=O)[C@H]2CC[C@H](CN)CC2)C(=O)Nc2ccc(-c3nc(C(F)(F)C(F)(F)C(=O)O)n[nH]3)cc2)cc1` [Example 98, 3-{(5-[4-({(2S)-2-({[trans-4-(Aminomethyl)cyclohexyl]carbonyl}amino)-3-[2′-methyl-4′-(piperidin-4-ylcarbamoyl)biphenyl-4-yl]propanoyl}amino)phenyl]-1H-1,2,4-triazol-3-yl}-2,2,3,3-tetrafluoropropanoic acid hydrochloride] are 1 nM and 0.06 µmol/L.
As to `Cc1cc(C(=O)NC2CCC(N(C)C)CC2)ccc1-c1ccc(C[C@H](NC(=O)[C@H]2CC[C@H](CN)CC2)C(=O)Nc2ccc(-c3nnc(C(F)(F)C(F)(F)C(F)(F)C(=O)O)[nH]3)cc2)cc1` (stereo partly drawn) [Example 148, 4-[5-(4-{[(2S)-2-({[trans-4-(Aminomethyl)cyclohexyl]carbonyl}amino)-3-(4′-{[4-(dimethylamino)cyclohexyl]carbamoyl}-2′-methylbiphenyl-4-yl)propanoyl]amino}phenyl)-4H-1,2,4-triazol-3-yl]-2,2,3,3,4,4-hexafluorobutanoic acid hydrochloride], the IC50 at human factor XIa was found to be 1 nM. Further, the “aPTT” value in the assay on human and animal plasma is 0.07 µmol/L.
On the same counts, the results for `Cc1cc(C(=O)NC2CCC(N(C)C)CC2(C)C)ccc1-c1ccc(C[C@H](NC(=O)[C@H]2CC[C@H](CN)CC2)C(=O)Nc2ccc(-c3nnn[nH]3)cc2)cc1` (stereo partly drawn) [Example 144, 4′-[(2S)-2-({[trans-4-(Aminomethyl)cyclohexyl]carbonyl}amino)-3-oxo-3-{[4-(1H-tetrazol-5-yl)phenyl]amino}propyl]-N-[4-(dimethylamino)-2,2-dimethylcyclohexyl]-2-methylbiphenyl-4-carboxamide hydrochloride] are 1.8 nM and 0.06 µmol/L.
In turn, `Cc1cc(C(=O)NC2CCNCC2)ccc1-c1ccc(C[C@H](NC(=O)[C@H]2CC[C@H](CN)CC2)C(=O)Nc2ccc(-c3nc(C(F)(F)C(F)(F)C(N)=O)n[nH]3)cc2)cc1` [Example 127, 4′-[(2S)-2-({[trans-4-(Aminomethyl)cyclohexyl]carbonyl}amino)-3-({4-[3-(3-amino-1,1,2,2-tetrafluoro-3-oxopropyl)-1H-1,2,4-triazol-5-yl]phenyl}amino)-3-oxopropyl]-2-methyl-N-(piperidin-4-yl)biphenyl-4-carboxamide hydrochloride] gave an IC50 on human factor XIa of 1.5 nM. Besides, the “aPTT” value with human and animal plasma came to 0.14 µmol/L.
For `CC1CC(NC(=O)c2ccc(-c3ccc(C[C@H](NC(=O)[C@H]4CC[C@H](CN)CC4)C(=O)Nc4ccc(-c5nn[nH]n5)cc4)cc3)c(Cl)c2)CCN1` (stereo partly drawn) [Example 30, 4′-[(2S)-2-({[trans-4-(Aminomethyl)cyclohexyl]carbonyl}amino)-3-oxo-3-{[4-(2H-tetrazol-5-yl)phenyl]amino}propyl]-2-chloro-N-(2-methylpiperidin-4-yl)biphenyl-4-carboxamide hydrochloride] the same measures were 3.2 nM and 0.12 µmol/L.
